Test results published in PMC9989937, “In-vitro antioxidant, lipoxygenase inhibitory, and in-vivo muscle relaxant potential of the extract and constituent isolated from Diospyros kaki (Japanese Persimmon)” (Heliyon, 2023).
Blank lines part the entries; values can stand above or below the molecule they belong to.

Columns and labels:
[1] = molecular target: T1, lipoxygenase (EC 1.13.11.12) Type 1 (soybean) (Glycine max, UniProt P08170); test: spectrophotometric lipoxygenase inhibition assay with linoleic acid substrate (positive control); assay type: biochemical
T1 construct: gene LOX1.1
T1 sequence (P08170 1-839): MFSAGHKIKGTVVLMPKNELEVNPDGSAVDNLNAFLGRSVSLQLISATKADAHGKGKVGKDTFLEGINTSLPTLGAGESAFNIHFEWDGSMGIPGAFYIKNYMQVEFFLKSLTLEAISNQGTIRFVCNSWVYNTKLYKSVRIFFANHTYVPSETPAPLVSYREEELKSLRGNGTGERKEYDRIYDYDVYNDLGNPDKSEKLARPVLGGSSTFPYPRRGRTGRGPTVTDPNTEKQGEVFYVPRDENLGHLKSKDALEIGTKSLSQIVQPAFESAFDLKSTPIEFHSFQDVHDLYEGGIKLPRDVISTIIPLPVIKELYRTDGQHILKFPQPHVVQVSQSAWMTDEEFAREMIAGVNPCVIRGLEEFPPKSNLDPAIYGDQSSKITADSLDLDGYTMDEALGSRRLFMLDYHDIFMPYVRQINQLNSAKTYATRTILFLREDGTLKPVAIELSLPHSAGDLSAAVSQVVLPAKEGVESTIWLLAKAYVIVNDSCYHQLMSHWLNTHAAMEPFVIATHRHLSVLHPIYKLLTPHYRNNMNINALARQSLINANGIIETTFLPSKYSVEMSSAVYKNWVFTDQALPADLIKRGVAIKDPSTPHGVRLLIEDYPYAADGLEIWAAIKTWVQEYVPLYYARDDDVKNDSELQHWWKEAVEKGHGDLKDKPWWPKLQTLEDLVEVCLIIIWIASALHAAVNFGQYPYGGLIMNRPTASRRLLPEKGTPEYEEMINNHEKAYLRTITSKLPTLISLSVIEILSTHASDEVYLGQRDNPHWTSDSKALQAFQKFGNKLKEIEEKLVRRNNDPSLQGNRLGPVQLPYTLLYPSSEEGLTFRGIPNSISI

[2] = molecular target: T1, lipoxygenase (EC 1.13.11.12) Type 1 (soybean); test: spectrophotometric lipoxygenase inhibition assay with linoleic acid substrate; assay type: biochemical

SMILES: O=c1cc(-c2ccccc2)oc2cc(O)c(O)c(O)c12 [Baicalein]
IC50 [1]: 40.9 µM

IC50 ([1]; read-out: IC50): 23 µM
SMILES: NC(=O)N1C(=O)/C(=C(\O)c2cccs2)c2cc(Cl)ccc21 [Tenidap]

IC50 [2]: 37 µM
SMILES: COc1c(C)c(-c2cc(O)c3c(c2O)C(=O)C(C)=CC3=O)c(OC)c2c1C(=O)C=CC2=O [compound 1, 1′,4′-dihydroxy-1,4-dimethoxy-3,7′-dimethyl-[2,2′-binaphthalene]-5,5′,8,8′-tetraone]
